The values that follow come from patent US20150299233A1, “COMPOSITIONS AND METHODS COMPRISING RHENIUM FOR THE TREATMENT OF CANCERS” (Massachusetts Institute of Technology, priority 2014, published 2015).

Read-outs that look alike come from different tables or passages of the source.

The test system of assay [1] is A549 cells. Put plainly: Intracellular ROS assay (DCFH-DA, flow cytometry). Conditions: 1, 2, shikonin 20 μM for 12 h; H2O2 1 mM for 1 h. Type of assay: cell-based, human. The method, then: Characterization of Necroptotic Features. Having established that necrosome formation is a determinant of 1 and 2 activity, additional studies were performed to understand the cascade of events leading from necrosome formation to cell death. Necrosomes generate abnormally high levels of mitochondrial ROS, leading to ATP depletion and eventual degradation of the mitochondrial membrane potential. With this fact in mind, intracellular ROS production was quantified by flow cytometry using 6-carboxy-2′,7′-dichlorodihydrofluorescein diacetate (DCFH-DA), a well-established ROS indicator.
In FIG. 2: (A) Representative histograms displaying the green fluorescence emitted by DCFH-DA-stained A549 cells (i) and A549 cells treated with 1(20 μM for 12 h) (iii) or 1 (20 μM for 12 h) with nectrostatin-1 (60 μM for 12 h) (ii). (B) Representative histograms displaying the green fluorescence emitted by DCFH-DA-stained A549 cells (i) and A549 cells treated with 2 (20 μM for 12 h) (iii) or 2 (20 μM for 12 h) with nectrostatin-1 (60 μM for 12 h) (ii). (C) Representative histograms displaying the green fluorescence emitted by DCFH-DA-stained A549 cells (i) and A549 cells treated withH2O2 (1mM for 1 h) (iii). (D) Representative histograms displaying the green fluorescence emitted by DCFH-DA-stained A549 cells (i) and A549 cells treated with shikonin (20 μM for 12 h) (iii).
Intracellular ROS Assay. Untreated and treated A549 cells (1.5×10^6 cells/well) grown in six-well plates were incubated with 6-carboxy-2′,7′-dichlorodihydrofluorescein diacetate (20 μM) for 30 min. The cells were then washed with PBS (1 mL x 3), harvested, and analyzed by using a FACSCalibur-HTS flow cytometer (BD Biosciences) (20 000 events per sample were acquired). The FL1 channel was used to assess intracellular ROS levels. Cell populations were analyzed using the FlowJo software (Tree Star).

The subject of another assay is confluent A549 cells. The experiment in a line: MTT cytotoxicity assay, confluent A549 cells. The format is cell-based, human. The settings on record: Table 2; confluent cells; 72 h exposure; read-out: IC50 A549 (confluent) lung carcinoma.
For assay [2], the system named is HeLa cervical adenocarcinoma cells. The experiment in a line: MTT cytotoxicity assay, HeLa cells. Type of assay: cell-based, human.
The subject of assay [3] is HT-29 (colorectal adenocarcinoma). Put plainly: MTT cytotoxicity assay, HT-29 cells. The format is cell-based, human. Conditions: Table 2; cisplatin-resistant cell line; 72 h exposure.
Method: Cytotoxicity MTT Assay. […] Cells (2×10^3 cells/well) were seeded in a 96-well plate. […] The final concentration of DMSO in each well was 0.5%, and this amount was also present in the untreated control. After 72 h, the medium was removed, 200 μL of a 0.4 mg/mL solution of MTT in DMEM, RPMI, or McCoy's 5A was added, and the plate was incubated for an additional 1-2 h. The DMEM/MTT, RPMI/MTT, or McCoy's 5A/MTT mixture was aspirated, and 200 μL of DMSO was added to dissolve the resulting purple formazan crystals. The absorbance of the solution wells was read at 550 nm. Absorbance values were normalized to DMSO-containing control wells and plotted as the concentration of test compound versus % cell viability. IC50 values were interpolated from the resulting dose-dependent curves. The reported IC50 values are the average from at least three independent experiments, each of which consisted of six replicates per concentration level.
The subject of assay [4] is cisplatin-sensitive cells (A2780). Put plainly: MTT cytotoxicity assay, A2780 cells. The format is cell-based, human. The settings on record: Table A; average of three independent determinations; read-out: IC50 A2780 (ovarian).
The test system of assay [5] is U2OS. Put plainly: MTT cytotoxicity assay, U2OS cells. Type of assay: cell-based, human. The settings on record: Table A; average of three independent determinations; read-out: IC50 U2OS (bone).
For assay [6], the system named is MRC-5. Put plainly: MTT cytotoxicity assay, MRC-5 normal lung fibroblasts. Conditions: Table A; average of three independent determinations; read-out: IC50 MRC5 (lung normal). The format is cell-based, human.
Method: (§1) In vitro toxicity of the rhenium (v) oxo complexes, 1 and 2 towards a panel of human cell lines was determined using the colorimetic MTT [[3-(4,5-dimethylithiazol-2-yl)-2,5-diphenyltetrazolium bromide] assay.
(§2) The in vitro effect of rhenium(V) oxo complexes 1 and 2 toward a panel of human cell lines was determined by the colorimetric MTT [3-(4,5-dimethylthiazol-2-yl)-2,5-diphenyltetrazolium bromide] assay. […] The IC50 values, or concentration required to induce 50% cell death, were derived from dose—response curves and are summarized in Table 1.
(§3) Cells (2×10^3 cells/well) were seeded in a 96-well plate. […] 1 and 2 were prepared as 10 mM solutions in DMSO and diluted using media. The final concentration of DMSO in each well was 0.5%, and this amount was also present in the untreated control. After 72 h, the medium was removed, 200 μL of a 0.4 mg/mL solution of MTT in DMEM, RPMI, or McCoy's 5A was added, and the plate was incubated for an additional 1-2 h. The DMEM/MTT, RPMI/MTT, or McCoy's 5A/MTT mixture was aspirated, and 200 μL of DMSO was added to dissolve the resulting purple formazan crystals. The absorbance of the solution wells was read at 550 nm. Absorbance values were normalized to DMSO-containing control wells and plotted as the concentration of test compound versus % cell viability. IC50 values were interpolated from the resulting dose-dependent curves. The reported IC50 values are the average from at least three independent experiments, each of which consisted of six replicates per concentration level.
In assay [7] the test system is PC-3 (prostate adenocarcinoma). Put plainly: MTT cytotoxicity assay, PC-3 cells. Type of assay: cell-based, human. The settings on record: Table 2; cisplatin-resistant cell line; 72 h exposure.
The test system of assay [8] is MCF-7 (breast adenocarcinoma). Put plainly: MTT cytotoxicity assay, MCF-7 cells. Type of assay: cell-based, human. The settings on record: Table 2; cisplatin-resistant cell line; 72 h exposure.
Assay [9] deals with DU 145 (prostate carcinoma). The experiment in a line: MTT cytotoxicity assay, DU 145 cells. Type of assay: cell-based, human. The settings on record: Table 2; cisplatin-resistant cell line; 72 h exposure; read-out: IC50 DU 14S prostate carcinoma.
The subject of a further assay is NTERA-2. The experiment in a line: MTT cytotoxicity assay, NTERA-2 cells. The settings on record: Table 1; 72 h exposure; ± standard deviation; read-out: IC50 NTERA-2 testis carcinoma. The format is cell-based, human.
Assay [10] relates to U2OS. Conditions: Table 1; 72 h exposure; value taken from ref 4S; read-out: IC50 U2OS bone osteosarcoma; cited from earlier work.
The subject of assay [11] is A549 cells. Put plainly: MTT cytotoxicity assay, A549 cells. The format is cell-based, human.
Method: as §1, §2, §3
For assay [12], the system named is MRC-5. The settings on record: Table 1; 72 h exposure; value taken from ref 4S; read-out: IC50 MRC-5 lung fibroblast; cited from earlier work.
Assay [13] concerns cisplatin-resistant ovarian carcinoma cells (A2780CP70). Put plainly: MTT cytotoxicity assay, A2780CP70 cells. Type of assay: cell-based, human.
For assay [14], the system named is MDA-MB-231 (breast adenocarcinoma). Put plainly: MTT cytotoxicity assay, MDA-MB-231 cells. The format is cell-based, human. The settings on record: Table 2; cisplatin-resistant cell line; 72 h exposure; read-out: IC50 MDA-M8-231 breast adenocarcinoma.
Assay [15] relates to cisplatin-sensitive cells (A2780). Conditions: Table 1; 72 h exposure; value taken from ref 4S; read-out: IC50 A2780 ovarian carcinoma; cited from earlier work.

`OO` [Compound H2O2, H2O2, reference compound]: the “intracellular ROS versus untreated control cells” value in the assay on A549 cells [1] was “significantly higher levels of measurable ROS”.

`N.N.[Cl][Pt][Cl]` [cisplatin, reference compound]: the IC50 was 9.42 ± 1.94 µM with confluent A549 cells; 4.1 ± 0.113 µM in [2] (Table 1, 72 h exposure, ± standard deviation, read-out: IC50 HeLa cervical adenocarcinoma); 4.1 ± 0.011 µM in [2] (Table A, average of three independent determinations, read-out: IC50 HeLa (cervical)); 29.6 ± 1.33 µM in assay [3]; 1.41 ± 0.037 µM in [4]; 4.6 ± 0.6 µM with U2OS [5]. For the same compound, the IC50 was 11.1 ± 1.33 µM in the assay with MRC-5 [6]; 10.2 ± 0.919 µM in assay [7]; 9.74 ± 0.537 µM in assay [8]; over 100 µM in assay [9]; 0.385 ± 0.049 µM with NTERA-2; 4.6 ± 0.6 µM with U2OS [10]. The 50% inhibitory concentration (IC50) was 3.23 ± 0.467 µM in the assay with A549 cells [11] (Table 1, 72 h exposure, ± standard deviation, read-out: IC50 A549 lung carcinoma); 2.74 ± 0.006 µM in the assay with A549 cells [11] (Table A, average of three independent determinations, read-out: IC50 A549 (lung)); 5.3 ± 0.6 µM in the assay on MRC-5 [12]; 8.42 ± 0.205 µM in assay [13] (Table 1, 72 h exposure, ± standard deviation, read-out: IC50 A2780CP70 ovarian carcinoma); 8.42 ± 0.205 µM in [13] (Table A, average of three independent determinations, read-out: IC50 A280CP70 (ovarian)); 43.6 ± 7.07 µM in [14]. Further, in assay [15], the IC50 is 0.7 ± 0.2 µM.
